Laboratory results from article PMC8131363 (Scientific Reports, 2021).

Tests used:
[1] = test system: human sensory panel; assay: human sensory panel triangle test; type: in vivo; settings: humans, CaCl2 8 mM, MgCl2 8 mM; for % correct, triangle test in umami mix: GSH 0.65 mM in MSG/IMP/NaCl mix vs mix blank; for % correct, triangle test in water: GSH 0.65 mM in mineral water vs blank
Procedure: All solutions were prepared using a commercial mineral water, Highland Spring (Highland Spring group, Blackford, UK) previously tested on our taste sensory panel and found to have the lowest level of inherent taste, thus being the least disruptive to taste tests. All taste-active substances were food-grade or of the highest available purity.
For tests with CaCl2, MgCl2, and GSH, each compound was dissolved directly in water, at 8 mM, 8 mM and 0.65 mM, respectively. Each compound was also tested in a mixture of umami and salty compounds, previously described in kokumi sensory evaluation, composed of 0.02% MSG, 0.02% IMP and 0.07% NaCl.
The human sensory panel experimental protocols were approved by the Waltham Animal Welfare and Ethical Review Board and all methods were carried-out in accordance with all local regulations and guidelines. Informed consent was obtained from all subjects, and all participants were over the legal age of consent. All assessors used for the tests were validated following the process outlined in ISO 8586:2012(E). Briefly, all assessors were evaluated on their capacity to recognise tastants from blank solutions and successfully identify the basic taste modalities presented. The panellists were also assessed on their ability to correctly rank solutions of a tastant in ascending concentration order. The measures for successful validation of panellists were applied to all who completed the assessment.
For the kokumi tastant tests, six tests in all were completed, two with each CaSR agonist chosen CaCl2, MgCl2, or GSH. The number of participating panellists for each test varied between twenty-four and twenty-five. […] No replicate evaluations were done by the same assessor. For each compound, the assessors were presented with […] separate forced choice triangle tests. In the first test, the compound was dissolved in spring water and compared to a blank of pure spring water, in the second the compound was dissolved into the previously described umami mix[8] and compared to a blank of the umami mix. In each separate test, the panellists were presented with the samples in a randomised order to eliminate potential bias. Panellists were presented either two blanks and a sample or two samples and a blank and asked to identify the sample that was different in the triad. Panellists were asked to give a brief description of why the sample chosen was different. If they were unable to detect a difference, the assessors were instructed to choose a sample at random and specify in the description that they were unable to make a difference between the samples[61].
The data was analysed for statistical significance using a standard methodology described in[61]. For this, the number of correct answers were compared to the number of assessors in each test, at the α-risk level chosen for the test. […] As determined by a one tailed test, the minimum number of panellists required to successfully determine difference between samples was thirteen for the chosen α value.
Initially, a contingency table of the number of correct answers and the number of wrong answers was created for each test. Then, Pearson’s chi-square test was then applied to the resulting table, with the probability of a correct answer at random being 1/ 3, while the probability of a wrong answer was 2/ 3.

[2] = test system: domestic short hair cats; assay: two-bottle choice test, cat water panel; type: in vivo, Felis catus; settings: for intake of compound solution compared to water: n = 24, 18 h, CaCl2 at 8 mM; for preference for umami amino acid mix with compound vs amino acid mix alone: n = 24, mix 15 mM L-His, 15 mM L-Trp, 15 mM L-Phe
Procedure: Healthy neutered adult domestic short hair cats (Felis catus) formed the panel for all the choice tests described here (n = 24). […] All the cats taking part in the panel were individually fed dry adult cat food twice per day to their individual Maintenance Energy Requirements (MER). On test days, the cats were housed during 18 h overnight in purpose-built, behaviourally-enriched lodges. During the 18 h exposure, the cats only had access to the water solutions in the two-bottle testing apparatus, however they had free access to drinking water for the rest of the day when they were housed in a social group within an environmentally enriched room. All accommodation complied with the Code of Practice for Animal (Scientific Procedures) Act 1986. All solutions were made with deionised water (Purite, UK). All taste-active substances were food-grade or of the highest available purity. In some cases, salts were purchased instead of the pure compound due to solubility, stability or availability reasons. The in vivo testing was a two-bottle choice test and the methodology was adapted from[23]. All animal studies were in alignment with the Mars Animal Research Policy (Mars.com). These studies follow the 3Rs approach to experimentation with animals in scientific research[59] and were approved by the Waltham Animal Welfare and Ethical Review Board, and all the methods were carried-out in accordance with local guidelines and regulations, including the ARRIVE guidelines. […] The drinkers contained the test solution or the control solution, and the position of the drinkers presented to the cats was changed every day to control for any side bias, and each solution was offered twice to each cat. The cats were also offered at the same time as the water solutions, 50% of their daily food allowance. After 30 min. the food was removed and the cats were left in their individual lodges overnight, with access to the drinkers for 18 h. The next day the drinkers were weighed, and the remaining quantities were recorded as refused amounts. Total intakes were calculated using the difference of the offered and refused amounts. A correction for evaporation and any solution spillage was also performed on each data point. Using a bespoke statistical analysis toolkit, based on R software (R Foundation, Vienna, Austria), a mixed model analysis was performed on the difference in intake (g) between water solutions containing the different taste compound, including cat (random) as a factor and weighting by grouped cat specific variability. This was used to test the mean intake difference versus 0, i.e. no difference, at a 5% level. The mean difference in intake was reported with a 95% confidence interval. All individual tests were then combined into a single model and the difference between the tastant pairs (i.e. both conditions containing the kokumi tastant in water vs. in the umami amino acid mix) were directly compared to measure the impact of the compound on the intake of either water or the umami mix. Any data errors (e.g. following manual error such as solution spillage, overflow) were removed from the final data set for analysis.

N[C@@H](CCC(=O)N[C@@H](CS)C(=O)NCC(=O)O)C(=O)O [Glutathione]
% correct, triangle test in umami mix [1]: 58.3% | % correct, triangle test in water [1]: 37.5% | intake of compound solution compared to water [2]: significantly lower acceptance | preference for umami amino acid mix with compound vs amino acid mix alone [2]: no statistically significant difference

[Ca+2].[Cl-].[Cl-] [Ca^2+, CaCl2]
% correct, triangle test in umami mix [1]: 36% | % correct, triangle test in water [1]: 56% | intake of compound solution compared to water [2]: no significant difference | preference for umami amino acid mix with compound vs amino acid mix alone [2]: significant preference

[Cl-].[Cl-].[Mg+2] [Mg^2+, MgCl2]
% correct, triangle test in umami mix [1]: 50% | % correct, triangle test in water [1]: 50% | intake of compound solution compared to water [2]: significantly lower acceptance | preference for umami amino acid mix with compound vs amino acid mix alone [2]: significantly rejected
